Measured values as given in patent publication US20240279232A1, “USE OF SUBSTITUTED 5-(4-METHYL-6-PHENYL-4H-BENZO[F]IMIDAZO[1,5-A][1,4] DIAZEPIN-3-YL)-1,2,4-O[…] THE TREATMENT OF INFLAMMATORY CONDITIONS” (priority 2021, published 2024).

How the values were obtained:
[1] = test system: RAW macrophages; experiment: NO production (Griess assay), LPS/IFNγ-activated RAW264.7 macrophages; format: cell-based, mouse; details: 10 μM, 24 hours, 1 μM GABA, LPS/IFNγ
[2] = test system: Mouse microglia; experiment: NO production (Griess assay), LPS/IFNγ-activated mouse microglia; format: cell-based; details: 10 μM, 24 hours, 1 μM GABA, LPS/IFNγ
[3] = test system: RAW macrophages; experiment: Cell viability (CellTiter-Glo), RAW macrophages; format: cell-based, mouse; details: CellTiter-Glo
[4] = test system: Mouse microglia; experiment: Cell viability (CellTiter-Glo), mouse microglia; format: cell-based; details: 50 μM, CellTiter-Glo
Protocol: Next, a library of GABAAR ligands was investigated to identify compounds that reduce the production of NO as a marker of anti-inflammatory activity. […] NO was quantified with a Greiss assay. Cell viability was determined with CellTiter-Glo.
Nitric oxide production (Griess assay) and viability assay (CellTiter-Glo). 80 μL of mouse microglia culture (1×10^6 cells/mL) was plated into sterile 384 well plates representing non-activated wells. The remaining culture was activated with 50 ng/ml LPS (Invivogen, NC9836) and 150 U/mL IFNγ (R&D Systems, 485MI100) and distributed into the 384 well plates. […] Assay plates were incubated for approximately 24 hours (unless otherwise noted) at 37° C., centrifuged, and 40 μL of supernatant transferred to a new plate for analysis using the Griess Assay (Promega, Madison, WI). Absorbance at 530 nm was measured using a TECAN Infinite M1000 plate reader. The remaining 40 μL containing cells was analyzed for toxicity by the CellTiter-Glo Assay (Promega, Madison, WI). Luminescence was read using a TECAN Infinite M1000 plate reader.

[5] = test system: HEK293; experiment: Viability assay (CellTiter-Glo), HEK293; format: cell-based, human; details: 120 μM, CellTiter-Glo
Protocol: (§1) The screen identified several compounds that reduced NO in activated microglia and macrophages. The tested compounds included achiral and chiral imidazodiazepines and benzodiazepines. In general, microglia were more sensitive to compound treatment with more pronounced reduction of NO than macrophages. […] Cell viability assays with HEK293 (kidney) and HepG2 (liver) cells were conducted in a concentration dependent manner. A limited number of compounds, such as GL-III-63, GL-III-76A, and GL-III-77, were toxic at 120 μM.
(§2) Viability assay. Human liver hepatocellular carcinoma (HEPG2) and human embryonic kidney 293T (HEK293T) cell lines were purchased (ATCC) and cultured in 75 cm^2 flasks (CellStar). Cells were grown in DMEM/High Glucose (Hyclone, #SH3024301) media to which non-essential amino acids (Hyclone, #SH30238.01), 10 mM HEPES (Hyclone, #SH302237.01), 5×10^6 units of penicillin and streptomycin (Hyclone, #SV30010), and 10% of heat inactivated fetal bovine serum (Gibco, #10082147) were added. Cells were harvested using 0.05% Trypsin (Hyclone, #SH3023601), washed with PBS, and dispensed into sterile white, optical bottom 384-well plates (NUNC, #142762). After three hours, small molecule DMSO solutions were transferred with a Tecan Freedom EVO liquid handling system equipped with a 100 nL pin tool (V&P Scientific). The controls were 3-dibutylamino-1-(4-hexyl-phenyl)-propan-1-one (25 mM in DMSO, positive control) and DMSO (negative control). The cells were incubated for 48 hours followed by the addition of CellTiter-Glo™, a luminescence-based cell viability assay (Promega, Madison, WI). All luminescence readings were performed on a Tecan Infinite M1000 plate reader. The assay was carried out in quadruplet with two independent runs. The data were analyzed by nonlinear regression.

[6] = test system: HEPG2; experiment: Viability assay (CellTiter-Glo), HEPG2; format: cell-based, human; details: 120 μM, CellTiter-Glo
Protocol: as §1, §2

## O=C(O)c1ncn2c1CN=C(c1ccccc1)c1cc(Br)ccc1-2 [GL-I-50]
[1]
  Inhibition of NO production (%) RAW macrophages 10 μM: 0 ± 1%
[2]
  Inhibition of NO production (%) Mouse microglia 10 μM: 33 ± 6%
[3]
  Cell viability (%) RAW macrophages 50 μM: 100 ± 9%
[4]
  Cell viability (%) Mouse microglia 50 μM: 88 ± 9%
[5]
  Cell viability (%) HEK293 120 μM: 97 ± 12%
[6]
  Cell viability (%) HEPG2 120 μM: 100 ± 2%

## C#Cc1ccc2c(c1)C(c1ccccc1F)=N[C@H](C)C(=O)N2 [GL-I-62]
[1]
  Inhibition of NO production (%) RAW macrophages 10 μM: 3 ± 2%
[2]
  Inhibition of NO production (%) Mouse microglia 10 μM: 13 ± 7%
[3]
  Cell viability (%) RAW macrophages 50 μM: 100 ± 3%
[4]
  Cell viability (%) Mouse microglia 50 μM: 92 ± 7%
[5]
  Cell viability (%) HEK293 120 μM: 79 ± 7%
[6]
  Cell viability (%) HEPG2 120 μM: 89 ± 10%

## C#Cc1ccc2c(c1)C(c1ccccc1F)=N[C@@H](C)C(=O)N2 [GL-I-64]
[1]
  Inhibition of NO production (%) RAW macrophages 10 μM: 3 ± 3%
[2]
  Inhibition of NO production (%) Mouse microglia 10 μM: 24 ± 3%
[3]
  Cell viability (%) RAW macrophages 50 μM: 100 ± 5%
[4]
  Cell viability (%) Mouse microglia 50 μM: 81 ± 5%
[5]
  Cell viability (%) HEK293 120 μM: 77 ± 13%
[6]
  Cell viability (%) HEPG2 120 μM: 100 ± 9%

## CC1N=C(c2ccccn2)c2cc(Br)ccc2NC1=O (stereo not drawn) [GL-II-05]
[1]
  Inhibition of NO production (%) RAW macrophages 10 μM: 0 ± 1%
[2]
  Inhibition of NO production (%) Mouse microglia 10 μM: 12 ± 5%
[3]
  Cell viability (%) RAW macrophages 50 μM: 100 ± 11%
[4]
  Cell viability (%) Mouse microglia 50 μM: 88 ± 8%
[5]
  Cell viability (%) HEK293 120 μM: 94 ± 3%
[6]
  Cell viability (%) HEPG2 120 μM: 92 ± 5%

## CCOC(=O)c1ncn2c1[C@@H](C)N=C(c1ccccn1)c1cc(C#C[Si](C)(C)C)ccc1-2 [GL-II-18]
[1]
  Inhibition of NO production (%) RAW macrophages 10 μM: 11 ± 4%
[2]
  Inhibition of NO production (%) Mouse microglia 10 μM: 49 ± 10%
[3]
  Cell viability (%) RAW macrophages 50 μM: 99 ± 2%
[4]
  Cell viability (%) Mouse microglia 50 μM: 89 ± 9%
[5]
  Cell viability (%) HEK293 120 μM: 53 ± 10%
[6]
  Cell viability (%) HEPG2 120 μM: 100 ± 8%

## C#Cc1ccc2c(c1)C(c1ccccn1)=NC(C)C(=O)N2C (stereo not drawn) [GL-II-61]
[1]
  Inhibition of NO production (%) RAW macrophages 10 μM: 10 ± 4%
[2]
  Inhibition of NO production (%) Mouse microglia 10 μM: 28 ± 2%
[3]
  Cell viability (%) RAW macrophages 50 μM: 100 ± 8%
[4]
  Cell viability (%) Mouse microglia 50 μM: 91 ± 8%
[5]
  Cell viability (%) HEK293 120 μM: 83 ± 10%
[6]
  Cell viability (%) HEPG2 120 μM: 82 ± 3%

## C#Cc1ccc2c(c1)C(c1ccccc1F)=NCc1c(C(=O)O)ncn1-2 [GL-II-79]
[1]
  Inhibition of NO production (%) RAW macrophages 10 μM: 0 ± 3%
[2]
  Inhibition of NO production (%) Mouse microglia 10 μM: 44 ± 6%
[3]
  Cell viability (%) RAW macrophages 50 μM: 100 ± 3%
[4]
  Cell viability (%) Mouse microglia 50 μM: 84 ± 5%
[5]
  Cell viability (%) HEK293 120 μM: 91 ± 13%
[6]
  Cell viability (%) HEPG2 120 μM: 100 ± 7%

## C#Cc1ccc2c(c1)C(c1ccccc1F)=NCc1c(C(=O)OCCCO)ncn1-2 [GL-II-80]
[1]
  Inhibition of NO production (%) RAW macrophages 10 μM: 5 ± 3%
[2]
  Inhibition of NO production (%) Mouse microglia 10 μM: 38 ± 8%
[3]
  Cell viability (%) RAW macrophages 50 μM: 100 ± 2%
[4]
  Cell viability (%) Mouse microglia 50 μM: 85 ± 1%
[5]
  Cell viability (%) HEK293 120 μM: 76 ± 8%
[6]
  Cell viability (%) HEPG2 120 μM: 100 ± 9%

## C#Cc1ccc2c(c1)C(c1ccccc1F)=NC(C)C(=O)N2C (stereo not drawn) [GL-III-24]
[1]
  Inhibition of NO production (%) RAW macrophages 10 μM: 68 ± 8%
[2]
  Inhibition of NO production (%) Mouse microglia 10 μM: 67 ± 12%
[3]
  Cell viability (%) RAW macrophages 50 μM: 100 ± 12%
[4]
  Cell viability (%) Mouse microglia 50 μM: 98 ± 5%
[5]
  Cell viability (%) HEK293 120 μM: 78 ± 6%
[6]
  Cell viability (%) HEPG2 120 μM: 91 ± 12%

## C#Cc1ccc2c(c1)C(c1ccccc1F)=NC(C)C(=O)N2C (stereo not drawn) [GL-III-25]
[1]
  Inhibition of NO production (%) RAW macrophages 10 μM: 38 ± 9%
[2]
  Inhibition of NO production (%) Mouse microglia 10 μM: 25 ± 10%
[3]
  Cell viability (%) RAW macrophages 50 μM: 100 ± 8%
[4]
  Cell viability (%) Mouse microglia 50 μM: 98 ± 4%
[5]
  Cell viability (%) HEK293 120 μM: 93 ± 4%
[6]
  Cell viability (%) HEPG2 120 μM: 100 ± 5%
